From patent US20220370636A1, “NICOTINAMIDE ADENINE DINUCLEOTIDE ACTIVATOR AND USE THEREOF” (University of South Florida, priority 2021, published 2022)

Tests used:
C57Bl/6J wildtype hearts = assay: Ex vivo ischemia reperfusion (Langendorff) in wildtype hearts; design: species or system mice
Experimental: Ex vivo ischemia reperfusion protocol. Mice were injected with heparin (360 USP units, Sigma-Aldrich, MO, USA) and euthanized with Somnasol™ (pentobarbital, 50 mg/kg i.p. body weight). Hearts were then excised and mounted on to the Langendorff apparatus immediately and perfused with Krebs-Hanseleit buffer containing (in mM): 119 NaCl, 25 NaHCO3, 4 KCl, 1 MgCl2, 1.8 CaCl2), 1 MgCl2, 10 glucose and 2 Sodium pyruvate, pH 7.4, that was constantly bubbled with carbogen gas and maintained at 37° C. as described previously. Perfusion was maintained at a constant flow of ˜2.2 ml/min. Hearts were stabilized for 30 min before proceeding to the ischemic phase. Hearts that underwent P7C3 (3 μM) treatment during the Langendorff procedure were allowed to stabilize for 10 mins then a 20 min perfusion with P7C3 (3 μM) (within Krebs-Hanseleit buffer) as pre-ischemic dosing. Cardiac ischemia was induced by the pause in Krebs-Hanseleit buffer perfusion for 45 min. Reperfusion was induced with the induction of Krebs-Hanseleit buffer at a constant flow of ˜2.2 ml/min for 2 hours. Hearts that underwent P7C3 (3 μM) treatment received 2-hour reperfusion with P7C3 within the Krebs-Hanseleit buffer. Hearts were then removed from the Langendorff apparatus and immediately placed in −20° C. freezer for 30 minutes. Hearts were then placed on a sectioning block and sliced into ([…]) slices. Heart sections were subjected to 2,3,5-Triphenyltetrazolium chloride (TTC) staining for 30 minutes. Hearts were then imaged and scanned for ischemic damage assessment. Image J software was utilized to quantify the ischemic areas for several sections per heart, which were then averaged and divided by the total area of the heart section and multiplied by a factor of ×100(%) to determine the overall damage percentage per heart.
Lactate Dehydrogenase activity. […]. The absorbance intensity was measured at 450 nm.
Troponin I activity. […].
Western blotting. For studies aimed to assess the insulin stimulated AKT phosphorylation, following four-week P7C3 treatment, mice were injected with Novolin R human insulin (1 Unit/kg body weight, i.p.), and hearts were collected after 5 minutes for Western blot analysis. Protein lysates for Western blotting were prepared from mouse hearts as described previously. Equivalent amounts of protein were loaded and resolved using 12% precast polyacrylamide gels (BioRad, CA, USA). Successful transfer of proteins was detected using Ponceau S (Sigma-Aldrich, MO, USA), and blots were probed with mouse monoclonal primary antibody for phospho AKT^ser473 (p-AKT), total AKT (t-AKT), phospho eNOS^ser1177 (p-eNOS), total eNOS (t-eNOS), Beclin1, and GAPDH (Cell signaling, MA, USA). HRP conjugated Rabbit anti-mouse antibody (Millipore) was used as a secondary antibody. Target protein band densities were quantified using Image J software.

db/db mice = assay: Grip strength and voluntary running wheel in db/db mice; assay type: in vivo; conditions: 4 weeks, vs db-Veh
Experimental: Grip strength and voluntary running wheel. The fore-limb and hind-limb grip strengths were measured with the use of Chatillon force measurement DFE II grip strength meter (Ametek, Columbus Instruments, OH, USA). The average of five measurements per mice is represented as KGF/kg body weight for both the fore-limb and hind-limb grip strengths measured. The overnight voluntary running wheel experiments were carried out with the Columbus Instruments O297, the CI Multi-Device Interface (Columbus Instruments, OH, USA) per manufacturer's recommendations.

NF-κB = assay: Luciferase assay in TNF-α inflamed C2C12/NF-κB reporter cells; assay type: cell-based, mouse; conditions: 100 and 500 nM, and 1 μM; 24 hours; 10 ng/mL TNF-α; vs DMSO+TNF-α
Experimental: Cell culture and Luciferase assay. The C2C12/NF-κB reporter cells were grown in DMEM supplemented with 10% FBS and 1% penicillin/streptomycin. Puromycin selection of the cells was performed by adding 2 μg/mL to the media, and the C2C12 cells with the NF-κB reporter gene were selected for further culturing. Cells were plated at 40,000 cells per well for the initial seeding density using a 24-well format. To induce inflammation, TNF-α was added at a concentration of 10 ng/mL, and simultaneously, the cells were treated with the vehicle control (DMSO or blank NPs), P7C3 solution, and P7C3 NPs. […] After 24 hours, the luciferase assay was conducted per manufacturer protocol (Promega Luciferase Assay System, USA). Using a Synergy H1 Hybrid Multi-Mode Reader, the luminescence of the cell lysate in the opaque 96-well plate was measured. Protein in the cell lysates was measured using a Pierce™ 660 nm protein assay. The luciferase activity was calculated after normalization with protein concentration.

RAW264.7 cells = assay: qRT-PCR of inflammatory genes in LPS-treated RAW264.7 cells; assay type: cell-based; conditions: LPS 1 μg/ml + P7C3 1 μM, 24 hours
Experimental: FIGS. 2A and 2B show macrophage: LPS induced inflammation and recovery via P7 markers such as NF-κb, IL-1β, IL-6. […] RAW264.7 cells was treated with LPS (1 μg/ml) and P7C3 (1 μM) for 24 hours. The isolated mRNA was subjected qRT-PCR using iScript cDNA Synthesis Kit (Bio-Rad, Cat #: 1706691) and iTaq Universal SYBR Green Supermix (Bio-Rad, Cat #: 1725121) in iCycler iQ Real Time PCR Detection System (Bio-Rad). The value of 2^-ΔΔCt was calculated and expressed as a Mean±SEM (n=6). The statistical analysis was performed using two-way ANOVA with Tukey's multiple comparisons test in GraphPad Prism 8.4.3, and p≤0.05 was considered statistically significant. […]

[1] = WT hearts perfused with P7C3 3 μM
[2] = WT hearts, following I/R injury, vs control hearts

With `OC(CNc1ccccc1)Cn1c2ccc(Br)cc2c2cc(Br)ccc21` (stereo not drawn) [P7C3, 3,6-Dibromo-a-[(phenylamino)methyl]-9H-carbazole-9-ethanol] the “increase in NAD+/NADH levels” value (C57Bl/6J wildtype hearts; [1]) was 3 fold, the “increase in cardiac Nampt activity” value (C57Bl/6J wildtype hearts; [1]) was 1.7 fold and the “ischemic injury (infarct)” value (C57Bl/6J wildtype hearts; WT hearts, P7C3 3 μM pre- and post-exposure) was 8%. The “p-AKT/t-AKT levels post I/R injury” value (C57Bl/6J wildtype hearts; WT hearts, P7C3 3 μM, vs vehicle control hearts) was “significant increase”, the “coronary effluent LDH activity” value (C57Bl/6J wildtype hearts; [2]) was “significantly reduced” and the “coronary effluent Troponin I” value (C57Bl/6J wildtype hearts; [2]) was “significantly reduced”. For the same molecule, the fore-limb grip strength (db/db mice) was “significant increase”, the hind-limb grip strength (db/db mice) was “significant increase” and the “voluntary running wheel distance covered” value (db/db mice) was “significant in-crease”. For the same molecule, the “NF-κB activity (luciferase)” value (NF-κB) was “significant decrease”, the IL-1β expression (RAW264.7 cells) was “significantly decreased” and the IL-6 expression (RAW264.7 cells) was “decreased”. For the same molecule, the IL-10 expression (RAW264.7 cells) was “decreased”, the NF-κb expression (RAW264.7 cells) was “significantly decreased” and the TNFα expression (RAW264.7 cells) was “significantly decreased”.
